Active and inactive are the calls of the source. The rule behind the calls is not given here.
How the values were obtained:
Mus musculus [1] = assay: Anti-diabetic activity in ob/ob mouse assessed as change in serum triglyceride levels at 8.4 uM/kg administered via oral gavage daily for 4 days measured on day 5 relative to control; assay type: functional
[2] = molecular target: T1, Peroxisome proliferator-activated receptor delta (Homo sapiens) (UniProt Q03181); assay: Transactivation of human PPARdelta at 10 uM
T1 sequence (whole entry): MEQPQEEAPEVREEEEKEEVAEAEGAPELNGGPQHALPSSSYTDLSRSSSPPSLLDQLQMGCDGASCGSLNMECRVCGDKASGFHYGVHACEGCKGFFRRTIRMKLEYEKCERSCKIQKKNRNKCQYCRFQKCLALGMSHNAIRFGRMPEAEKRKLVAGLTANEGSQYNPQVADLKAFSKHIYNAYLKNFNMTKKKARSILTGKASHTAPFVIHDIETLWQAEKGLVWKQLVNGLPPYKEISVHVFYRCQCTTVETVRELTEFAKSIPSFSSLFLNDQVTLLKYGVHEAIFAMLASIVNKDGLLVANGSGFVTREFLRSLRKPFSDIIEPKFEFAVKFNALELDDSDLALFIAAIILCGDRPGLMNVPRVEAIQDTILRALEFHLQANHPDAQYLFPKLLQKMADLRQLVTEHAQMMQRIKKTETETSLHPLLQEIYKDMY

Mus musculus [3] = assay: Toxicity in ob/ob mouse assessed as change in body weight at 8.4 uM/kg administered via oral gavage daily for 4 days measured on day 5 relative to control; assay type: organism-based; conditions: in vivo, 96 h, 8.4 µmol/kg
Mus musculus [4] = assay: Anti-diabetic activity in ob/ob mouse assessed as change in serum insulin levels at 8.4 uM/kg administered via oral gavage daily for 4 days measured on day 5 relative to control; assay type: functional
[5] = Modulation of SGK1 mRNA expression in HCCD cells at 20 uM after 24 hrs by RT-PCR method relative to control; assay type: functional, Homo sapiens
[6] = molecular target: T2, NAD-dependent protein deacetylase sirtuin-1 (Homo sapiens) (UniProt Q96EB6); assay: Activation of recombinant human SIRT1 at 10 uM using C-terminal AMC labeled Arg-His-Lys-Lys (Ac) as substrate after 30 mins by FLUOR DE LYS fluorescent assay relative to control
T2 sequence (whole entry): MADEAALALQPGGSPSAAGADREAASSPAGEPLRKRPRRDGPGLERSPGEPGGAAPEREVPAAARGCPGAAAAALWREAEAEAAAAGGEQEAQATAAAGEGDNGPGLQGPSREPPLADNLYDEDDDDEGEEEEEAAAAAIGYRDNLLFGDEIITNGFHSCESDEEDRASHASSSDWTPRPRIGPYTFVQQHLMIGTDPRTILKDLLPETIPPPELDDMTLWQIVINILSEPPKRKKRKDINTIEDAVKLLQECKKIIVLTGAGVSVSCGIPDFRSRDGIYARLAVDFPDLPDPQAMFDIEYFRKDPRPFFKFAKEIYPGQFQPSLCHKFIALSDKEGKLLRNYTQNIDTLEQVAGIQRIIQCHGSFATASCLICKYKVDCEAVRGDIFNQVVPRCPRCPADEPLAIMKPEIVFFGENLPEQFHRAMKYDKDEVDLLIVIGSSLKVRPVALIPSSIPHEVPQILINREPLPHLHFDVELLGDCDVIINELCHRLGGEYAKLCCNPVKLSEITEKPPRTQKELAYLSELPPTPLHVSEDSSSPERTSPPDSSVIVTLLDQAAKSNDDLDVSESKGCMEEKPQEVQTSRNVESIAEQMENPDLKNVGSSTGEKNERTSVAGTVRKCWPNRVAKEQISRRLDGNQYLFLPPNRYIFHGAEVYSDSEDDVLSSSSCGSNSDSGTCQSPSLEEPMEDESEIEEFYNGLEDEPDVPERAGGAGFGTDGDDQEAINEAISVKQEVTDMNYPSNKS

[7] = molecular target: T3, Peroxisome proliferator-activated receptor alpha (Homo sapiens) (UniProt Q07869); assay: Transactivation of human Gal4-fused PPARalpha LBD expressed in African green monkey COS7 cells after 24 hrs by luciferase reporter gene assay relative to WY14643; assay type: cell-based
T3 sequence (whole entry): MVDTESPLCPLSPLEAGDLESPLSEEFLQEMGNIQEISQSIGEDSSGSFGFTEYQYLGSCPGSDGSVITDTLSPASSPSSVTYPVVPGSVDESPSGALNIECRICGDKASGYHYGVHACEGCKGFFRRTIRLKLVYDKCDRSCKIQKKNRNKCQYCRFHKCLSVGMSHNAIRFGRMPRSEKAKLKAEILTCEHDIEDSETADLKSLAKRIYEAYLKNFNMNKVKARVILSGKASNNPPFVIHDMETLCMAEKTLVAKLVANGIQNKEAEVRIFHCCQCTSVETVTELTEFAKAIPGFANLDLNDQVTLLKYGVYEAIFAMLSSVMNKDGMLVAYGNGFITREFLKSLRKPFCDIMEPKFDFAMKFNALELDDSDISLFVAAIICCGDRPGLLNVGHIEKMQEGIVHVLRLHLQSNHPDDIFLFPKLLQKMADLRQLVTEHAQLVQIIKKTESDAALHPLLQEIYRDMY

[8] = molecular target: T4, Peroxisome proliferator-activated receptor gamma (Homo sapiens, UniProt P37231); assay: Transactivation of human Gal4-fused PPARgamma LBD expressed in African green monkey COS7 cells after 24 hrs by luciferase reporter gene assay; assay type: cell-based
T4 sequence (P37231 whole entry): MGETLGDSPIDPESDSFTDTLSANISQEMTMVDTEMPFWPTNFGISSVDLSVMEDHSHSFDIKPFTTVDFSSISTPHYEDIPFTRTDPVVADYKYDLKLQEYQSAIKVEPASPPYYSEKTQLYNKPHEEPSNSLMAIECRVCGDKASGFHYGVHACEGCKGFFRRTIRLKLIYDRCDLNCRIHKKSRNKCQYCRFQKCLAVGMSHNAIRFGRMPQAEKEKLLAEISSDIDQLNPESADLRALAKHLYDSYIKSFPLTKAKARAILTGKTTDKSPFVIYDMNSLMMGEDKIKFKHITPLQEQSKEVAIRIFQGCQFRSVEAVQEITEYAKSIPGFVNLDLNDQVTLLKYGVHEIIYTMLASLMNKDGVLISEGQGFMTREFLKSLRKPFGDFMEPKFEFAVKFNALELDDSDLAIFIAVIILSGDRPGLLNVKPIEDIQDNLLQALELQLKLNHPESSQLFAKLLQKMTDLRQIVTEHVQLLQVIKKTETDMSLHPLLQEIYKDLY

Mus musculus [9] = assay: Anti-diabetic activity in ob/ob mouse assessed as change in serum glucose levels at 8.4 uM/kg administered via oral gavage daily for 4 days measured on day 5 relative to control; assay type: functional
[10] = molecular target: T5, Peroxisome proliferator-activated receptor alpha (Homo sapiens, UniProt Q07869); assay: Transactivation of human Gal4-fused PPARalpha LBD expressed in African green monkey COS7 cells after 24 hrs by luciferase reporter gene assay; assay type: cell-based
T5 sequence (Q07869 whole entry): T3 sequence (whole entry)

For COc1cc(/C=C/c2ccc3c(c2)sc(=O)n3CCOc2ccc(CC(OCC(F)(F)F)C(=O)O)cc2)cc(OC)c1 (centres undefined), the Activity (Mus musculus [1]) was -23%, the Activity [2] was “inactive” and the Activity (Mus musculus [3]) was 81%. The Activity (Mus musculus [4]) was -61%, the Activity [5] was 89% and the Activity [6] was -4%. It also gave an Emax [7] of 170%, an EC50 ([8]; read-out: EC50) of 20 nM and an Activity (Mus musculus [9]) of -36%. It also gave an EC50 [10] of 300 nM.
In the case of CCOC(=O)C(Cc1ccc(OCCn2c(=O)sc3cc(C(=O)/C=C/c4cc(OC)cc(OC)c4)ccc32)cc1)OCC (centres undefined), the Activity (Mus musculus [1]) is reported as -34%, the Activity [2] is reported as “inactive” and the Activity (Mus musculus [3]) is reported as 112%. For the same molecule, the Activity (Mus musculus [4]) was -7%, the Activity [5] was -14% and the Activity [6] was 2%. It also gave an Emax [7] of 0%, an EC50 ([8]; read-out: EC50) of 30 nM and an Activity (Mus musculus [9]) of -25%. It also gave an EC50 [10] of 10000 nM.
For O=C(O)C(Cc1ccc(OCCn2c(=O)sc3cc(/C=C/c4cc(O)cc(O)c4)ccc32)cc1)OCC(F)(F)F (centres undefined), the Activity (Mus musculus [1]) was -39%, the Activity [2] was “inactive” and the Activity (Mus musculus [3]) was 32%. For the same molecule, the Activity (Mus musculus [4]) was -43%, the Activity [5] was -57% and the Activity [6] was 128%. For the same molecule, the Emax [7] was 100%, the EC50 ([8]; read-out: EC50) was 200 nM and the Activity (Mus musculus [9]) was -40%. It also gave an EC50 [10] of 10000 nM.
For Cc1cccc(Nc2cc(Cl)nc(SCC(=O)O)n2)c1C [PIRINIXIC ACID], the EC50 [8] was “Not Active”.
With CCOC(Cc1ccc(OCCn2c(=O)sc3cc(/C=C/c4cc(OC)cc(OC)c4)ccc32)cc1)C(=O)NC (centres undefined) the Activity (Mus musculus [1]) was -29%, the Activity [2] was “inactive” and the Activity (Mus musculus [3]) was 111%. The Activity (Mus musculus [4]) was -36%, the Activity [5] was -43% and the Activity [6] was 17%. The Emax [7] was 0%, the EC50 ([8]; read-out: EC50) was < 10 nM and the Activity (Mus musculus [9]) was -14%. It also gave an EC50 [10] of 10000 nM.
In the case of CCOC(=O)C(Cc1ccc(OCCn2c(=O)sc3cc(/C=C/c4cc(O)cc(O)c4)ccc32)cc1)OCC(F)(F)F (centres undefined), the Activity (Mus musculus [1]) is reported as -25%, the Activity [2] is reported as “inactive” and the Activity (Mus musculus [3]) is reported as 56%. For the same molecule, the Activity (Mus musculus [4]) was -41%, the Activity [5] was 83% and the Activity [6] was -28%. It also gave an Emax [7] of 149%, an EC50 ([8]; read-out: EC50) of 80 nM and an Activity (Mus musculus [9]) of -40%. For the same molecule, the EC50 [10] was 10000 nM.
With CCOC(=O)C(Cc1ccc(OCCn2c(=O)sc3cc(C(=O)/C=C/c4cc(OC)cc(OC)c4)ccc32)cc1)OCC(F)(F)F (centres undefined) the Activity (Mus musculus [1]) was -24%, the Activity [2] was “inactive” and the Activity (Mus musculus [3]) was 93%. For the same molecule, the Activity (Mus musculus [4]) was 17%, the Activity [5] was -53% and the Activity [6] was 0%. The Emax [7] was 21%, the EC50 ([8]; read-out: EC50) was 200 nM and the Activity (Mus musculus [9]) was 2%. It also gave an EC50 [10] of 10000 nM.
In the case of COc1cc(/C=C/C(=O)c2ccc3c(c2)sc(=O)n3CCOc2ccc(CC(OCC(F)(F)F)C(=O)O)cc2)cc(OC)c1 (centres undefined), the Activity (Mus musculus [1]) is reported as -18%, the Activity [2] is reported as “inactive” and the Activity (Mus musculus [3]) is reported as 142%. It also gave an Activity (Mus musculus [4]) of 28%, an Activity [5] of 820% and an Activity [6] of 24%. For the same molecule, the Emax [7] was 36%, the EC50 ([8]; read-out: EC50) was 1000 nM and the Activity (Mus musculus [9]) was -14%. It also gave an EC50 [10] of 10000 nM.
For CCOC(Cc1ccc(OCCn2c(=O)sc3cc(C(=O)/C=C/c4cc(OC)cc(OC)c4)ccc32)cc1)C(=O)O (centres undefined), the Activity (Mus musculus [1]) was -31%, the Activity [2] was “inactive” and the Activity (Mus musculus [3]) was 150%. It also gave an Activity (Mus musculus [4]) of 18%, an Activity [5] of 736% and an Activity [6] of 23%. For the same molecule, the Emax [7] was 53%, the EC50 ([8]; read-out: EC50) was 1000 nM and the Activity (Mus musculus [9]) was -27%. For the same molecule, the EC50 [10] was 10000 nM.
For CCOC(Cc1ccc(OCCn2c(=O)sc3cc(/C=C/c4cc(OC)cc(OC)c4)ccc32)cc1)C(=O)O (centres undefined), the Activity (Mus musculus [1]) was -56%, the Activity [2] was “inactive” and the Activity (Mus musculus [3]) was 192%. For the same molecule, the Activity (Mus musculus [4]) was -33%, the Emax [7] was 494% and the EC50 ([8]; read-out: EC50) was < 10 nM. For the same molecule, the Activity (Mus musculus [9]) was -42% and the EC50 [10] was 1000 nM.
With CCOC(=O)C(Cc1ccc(OCCn2c(=O)sc3cc(/C=C/c4cc(OC)cc(OC)c4)ccc32)cc1)OCC (centres undefined) the Activity (Mus musculus [1]) was -35%, the Activity [2] was “inactive” and the Activity (Mus musculus [3]) was 79%. The Activity (Mus musculus [4]) was -28%, the Activity [5] was -23% and the Activity [6] was 13%. For the same molecule, the Emax [7] was 149%, the EC50 ([8]; read-out: EC50) was < 10 nM and the Activity (Mus musculus [9]) was -36%. It also gave an EC50 [10] of 2000 nM.

From ChEMBL document CHEMBL4138119, “Anti-diabetic activity of fused PPARγ-SIRT1 ligands with limited body-weight gain by mimicking calorie restriction and decreasing SGK1 expression” (Eur J Med Chem, 2017)
